According to patent publication US11178871B2, “Herbicidal pyrimidine compounds” (BASF SE, priority 2016, dated 2021):

How the values were obtained:
Assay type in all cases: in vivo
Amaranthus retroflexus = assay: greenhouse test, post-emergence treatment, AMARE
Source text: (§1) The culture containers used were plastic flowerpots containing loamy sand with approximately 3.0% of humus as the substrate. The seeds of the test plants were sown separately for each species.
(§2) For the post-emergence treatment, the test plants were first grown to a height of 3 to 15 cm, depending on the plant habit, and only then treated with the active ingredients which had been suspended or emulsified in water. For this purpose, the test plants were either sown directly and grown in the same containers, or they were first grown separately as seedlings and transplanted into the test containers a few days prior to treatment.
(§3) Depending on the species, the plants were kept at 10-25° C. or 20-35° C., respectively.
(§4) The test period extended over 2 to 4 weeks. During this time, the plants were tended, and their response to the individual treatments was evaluated.
(§5) Evaluation was carried out using a scale from 0 to 100. 100 means no emergence of the plants, or complete destruction of at least the aerial moieties, and 0 means no damage, or normal course of growth. A good herbicidal activity is given at values of at least 70 and a very good herbicidal activity is given at values of at least 85.
(§6) The plants used in the greenhouse experiments were of the following species: […]

Echinocloa crus-galli [1] = assay: greenhouse test, post-emergence treatment, ECHCG; settings: post-emergence
Source text: as §1, §2, §3, §4, §5, §6

Setaria viridis = assay: greenhouse test, post-emergence treatment, SETVI
Source text: as §1, §2, §3, §4, §5, §6

Alopecurus myosuroides = assay: greenhouse test, post-emergence treatment, ALOMY; settings: post-emergence
Source text: as §1, §2, §3, §4, §5, §6

Apera spica-venti = assay: greenhouse test, pre-emergence treatment, APESV
Source text: as §1
(§7) For the pre-emergence treatment, the active ingredients, which had been suspended or emulsified in water, were applied directly after sowing by means of finely distributing nozzles. The containers were irrigated gently to promote germination and growth and subsequently covered with transparent plastic hoods until the plants had rooted. This cover caused uniform germination of the test plants, unless this had been impaired by the active ingredients.
as §3, §4, §5, §6

Avena fatua = assay: greenhouse test, post-emergence treatment, AVEFA
Source text: as §1, §2, §3, §4, §5, §6

Echinocloa crus-galli [2] = assay: greenhouse test, pre-emergence treatment, ECHCG
Source text: as §1, §7, §3, §4, §5, §6

SMILES: O=C(O)/C=C/c1nc(C2CC2)ncc1-c1ccccc1Cl [Ex. 131]
- herbicidal activity (Amaranthus retroflexus; 2000 g/ha): very good (a very good herbicidal activity is given at values of at least 85)
- herbicidal activity (Echinocloa crus-galli [1]; 2000 g/ha): very good (a very good herbicidal activity is given at values of at least 85)

SMILES: CC(O)c1nc(C2CC2)ncc1-c1ccccc1Br (stereo not shown) [Ex. 114]
- herbicidal activity (Setaria viridis; 500 g/ha): very good (a very good herbicidal activity is given at values of at least 85)

SMILES: COC(=O)COC(C)c1nc(C2CC2)ncc1-c1ccccc1Cl (stereo not shown) [Ex. 141]
- herbicidal activity (Setaria viridis; 1000 g/ha): good (A good herbicidal activity is given at values of at least 70)

SMILES: OC1(c2nc(C3CC3)ncc2-c2ccccc2Cl)CCCC1 [Ex. 127]
- herbicidal activity (Amaranthus retroflexus; 2000 g/ha): very good (a very good herbicidal activity is given at values of at least 85)

SMILES: Clc1ccccc1-c1cnc(C2CC2)nc1CC1CCOCC1 [Ex. 96]
- herbicidal activity (Setaria viridis; 1000 g/ha): very good (a very good herbicidal activity is given at values of at least 85)

SMILES: OC1(Cc2nc(C3CC3)ncc2-c2ccccc2Cl)CCCC1 [Ex. 74]
- herbicidal activity (Setaria viridis; 2000 g/ha): very good (a very good herbicidal activity is given at values of at least 85)

SMILES: COC(=O)CCc1nc(C2CC2)ncc1-c1ccccc1Cl [Ex. 132]
- herbicidal activity (Amaranthus retroflexus; 2000 g/ha): good (A good herbicidal activity is given at values of at least 70)
- herbicidal activity (Echinocloa crus-galli [1]; 2000 g/ha): very good (a very good herbicidal activity is given at values of at least 85)

SMILES: Cc1nc(C(C)Br)ncc1-c1ccccc1Cl (stereo not shown) [Ex. 52]
- herbicidal activity (Setaria viridis; 1000 g/ha): very good (a very good herbicidal activity is given at values of at least 85)

SMILES: COC(=O)C(O)Cc1nc(C2CC2)ncc1-c1ccccc1Cl (stereo not shown) [Ex. 129]
- herbicidal activity (Alopecurus myosuroides; 2000 g/ha): very good (a very good herbicidal activity is given at values of at least 85)
- herbicidal activity (Amaranthus retroflexus; 2000 g/ha): very good (a very good herbicidal activity is given at values of at least 85)
- herbicidal activity (Echinocloa crus-galli [1]; 2000 g/ha): very good (a very good herbicidal activity is given at values of at least 85)
- herbicidal activity (Apera spica-venti; 2000 g/ha): very good (a very good herbicidal activity is given at values of at least 85)

SMILES: CCOP(=O)(OCC)C(Cc1nc(C2CC2)ncc1-c1ccccc1Cl)P(=O)(OCC)OCC [Ex. 88]
- herbicidal activity (Setaria viridis; 2000 g/ha): very good (a very good herbicidal activity is given at values of at least 85)

SMILES: OCCc1nc(C2CC2)ncc1-c1ccccc1Cl [Ex. 255]
- herbicidal activity (Amaranthus retroflexus; 500 g/ha): good (A good herbicidal activity is given at values of at least 70)

SMILES: Clc1ccccc1-c1cnc(C2CC2)nc1CC1CCCC1 [Ex. 99]
- herbicidal activity (Setaria viridis; 2000 g/ha): very good (a very good herbicidal activity is given at values of at least 85)

SMILES: Brc1ccccc1-c1cnc(C2CC2)nc1-c1csc2ccccc12 [Ex. 47]
- herbicidal activity (Amaranthus retroflexus; 1000 g/ha): very good (a very good herbicidal activity is given at values of at least 85)

SMILES: Cc1occc1-c1nc(C2CC2)ncc1-c1ccccc1Br [Ex. 238]
- herbicidal activity (Amaranthus retroflexus; 2000 g/ha): very good (a very good herbicidal activity is given at values of at least 85)
- herbicidal activity (Echinocloa crus-galli [1]; 2000 g/ha): very good (a very good herbicidal activity is given at values of at least 85)

SMILES: CCOC(=O)Cc1nc(OC)ncc1-c1ccccc1Cl [Ex. 226]
- herbicidal activity (Amaranthus retroflexus; 500 g/ha): very good (a very good herbicidal activity is given at values of at least 85)

SMILES: Cc1cc(-c2nc(C3CC3)ncc2-c2ccccc2Cl)sn1 [Ex. 254]
- herbicidal activity (Alopecurus myosuroides; 1000 g/ha): good (A good herbicidal activity is given at values of at least 70)
- herbicidal activity (Amaranthus retroflexus; 1000 g/ha): very good (a very good herbicidal activity is given at values of at least 85)
- herbicidal activity (Echinocloa crus-galli [1]; 1000 g/ha): very good (a very good herbicidal activity is given at values of at least 85)

SMILES: OCc1nc(C2CC2)ncc1-c1ccc(F)cc1Cl [Ex. 15]
- herbicidal activity (Alopecurus myosuroides; 1000 g/ha): very good (a very good herbicidal activity is given at values of at least 85)
- herbicidal activity (Amaranthus retroflexus; 1000 g/ha): good (A good herbicidal activity is given at values of at least 70)
- herbicidal activity (Avena fatua; 1000 g/ha): very good (a very good herbicidal activity is given at values of at least 85)
- herbicidal activity (Apera spica-venti; 1000 g/ha): very good (a very good herbicidal activity is given at values of at least 85)
- herbicidal activity (Echinocloa crus-galli [2]; 1000 g/ha): very good (a very good herbicidal activity is given at values of at least 85)

SMILES: Clc1ccccc1-c1cnc(C2CC2)nc1/C=C/c1c(Cl)ccc(Cl)c1Cl [Ex. 232]
- herbicidal activity (Amaranthus retroflexus; 2000 g/ha): very good (a very good herbicidal activity is given at values of at least 85)

SMILES: COC(=O)Cc1nc(C2CC2)ncc1-c1cc(F)ccc1Cl [Ex. 150]
- herbicidal activity (Alopecurus myosuroides; 2000 g/ha): good (A good herbicidal activity is given at values of at least 70)
- herbicidal activity (Amaranthus retroflexus; 2000 g/ha): very good (a very good herbicidal activity is given at values of at least 85)
- herbicidal activity (Echinocloa crus-galli [1]; 2000 g/ha): very good (a very good herbicidal activity is given at values of at least 85)
- herbicidal activity (Apera spica-venti; 2000 g/ha): very good (a very good herbicidal activity is given at values of at least 85)
- herbicidal activity (Echinocloa crus-galli [2]; 2000 g/ha): good (A good herbicidal activity is given at values of at least 70)

SMILES: Cc1cc(-c2nc(C3CC3)ncc2-c2ccccc2Br)c(C)o1 [Ex. 237]
- herbicidal activity (Alopecurus myosuroides; 2000 g/ha): very good (a very good herbicidal activity is given at values of at least 85)
- herbicidal activity (Avena fatua; 2000 g/ha): very good (a very good herbicidal activity is given at values of at least 85)
- herbicidal activity (Echinocloa crus-galli [1]; 2000 g/ha): very good (a very good herbicidal activity is given at values of at least 85)
- herbicidal activity (Apera spica-venti; 2000 g/ha): very good (a very good herbicidal activity is given at values of at least 85)
- herbicidal activity (Echinocloa crus-galli [2]; 2000 g/ha): very good (a very good herbicidal activity is given at values of at least 85)

SMILES: COC(=O)Cc1nc(C2CC2)ncc1-c1ccccc1Cl [Ex. 32]
- herbicidal activity (Alopecurus myosuroides; 2000 g/ha): very good (a very good herbicidal activity is given at values of at least 85)
- herbicidal activity (Avena fatua; 2000 g/ha): very good (a very good herbicidal activity is given at values of at least 85)
- herbicidal activity (Echinocloa crus-galli [1]; 2000 g/ha): very good (a very good herbicidal activity is given at values of at least 85)
- herbicidal activity (Apera spica-venti; 2000 g/ha): very good (a very good herbicidal activity is given at values of at least 85)
- herbicidal activity (Echinocloa crus-galli [2]; 2000 g/ha): very good (a very good herbicidal activity is given at values of at least 85)

SMILES: CC(O)C(O)c1nc(C2CC2)ncc1-c1ccccc1Cl (stereo not shown) [Ex. 147]
- herbicidal activity (Alopecurus myosuroides; 2000 g/ha): very good (a very good herbicidal activity is given at values of at least 85)
- herbicidal activity (Avena fatua; 2000 g/ha): very good (a very good herbicidal activity is given at values of at least 85)
- herbicidal activity (Echinocloa crus-galli [1]; 2000 g/ha): very good (a very good herbicidal activity is given at values of at least 85)
- herbicidal activity (Apera spica-venti; 2000 g/ha): very good (a very good herbicidal activity is given at values of at least 85)
- herbicidal activity (Echinocloa crus-galli [2]; 2000 g/ha): very good (a very good herbicidal activity is given at values of at least 85)

SMILES: Brc1ccccc1-c1cnc(C2CC2)nc1-c1cnco1 [Ex. 261]
- herbicidal activity (Alopecurus myosuroides; 1000 g/ha): very good (a very good herbicidal activity is given at values of at least 85)
- herbicidal activity (Avena fatua; 1000 g/ha): very good (a very good herbicidal activity is given at values of at least 85)
- herbicidal activity (Echinocloa crus-galli [1]; 1000 g/ha): very good (a very good herbicidal activity is given at values of at least 85)
- herbicidal activity (Apera spica-venti; 1000 g/ha): very good (a very good herbicidal activity is given at values of at least 85)
- herbicidal activity (Echinocloa crus-galli [2]; 1000 g/ha): very good (a very good herbicidal activity is given at values of at least 85)

SMILES: Cc1ncoc1-c1nc(C2CC2)ncc1-c1cc(C(F)(F)F)ccc1Br [Ex. 263]
- herbicidal activity (Alopecurus myosuroides; 1000 g/ha): very good (a very good herbicidal activity is given at values of at least 85)
- herbicidal activity (Avena fatua; 1000 g/ha): very good (a very good herbicidal activity is given at values of at least 85)
- herbicidal activity (Echinocloa crus-galli [1]; 1000 g/ha): very good (a very good herbicidal activity is given at values of at least 85)
- herbicidal activity (Apera spica-venti; 1000 g/ha): very good (a very good herbicidal activity is given at values of at least 85)
- herbicidal activity (Echinocloa crus-galli [2]; 1000 g/ha): very good (a very good herbicidal activity is given at values of at least 85)

SMILES: OC1(Cc2nc(C3CC3)ncc2-c2ccccc2Cl)CCC1 [Ex. 65]
- herbicidal activity (Amaranthus retroflexus; 2000 g/ha): very good (a very good herbicidal activity is given at values of at least 85)
- herbicidal activity (Echinocloa crus-galli [1]; 2000 g/ha): very good (a very good herbicidal activity is given at values of at least 85)

SMILES: Cc1oc(C(C)C)nc1-c1nc(C2CC2)ncc1-c1ccccc1Cl [Ex. 283]
- herbicidal activity (Alopecurus myosuroides; 2000 g/ha): very good (a very good herbicidal activity is given at values of at least 85)
- herbicidal activity (Avena fatua; 2000 g/ha): very good (a very good herbicidal activity is given at values of at least 85)
- herbicidal activity (Echinocloa crus-galli [1]; 2000 g/ha): very good (a very good herbicidal activity is given at values of at least 85)
- herbicidal activity (Apera spica-venti; 2000 g/ha): very good (a very good herbicidal activity is given at values of at least 85)
- herbicidal activity (Echinocloa crus-galli [2]; 2000 g/ha): good (A good herbicidal activity is given at values of at least 70)

SMILES: COc1ccc(-c2nc(C3CC3)ncc2-c2ccccc2Cl)cc1 [Ex. 164]
- herbicidal activity (Amaranthus retroflexus; 2000 g/ha): very good (a very good herbicidal activity is given at values of at least 85)

SMILES: Cc1nc(C)c(-c2nc(C3CC3)ncc2-c2ccccc2Cl)o1 [Ex. 243]
- herbicidal activity (Alopecurus myosuroides; 1000 g/ha): very good (a very good herbicidal activity is given at values of at least 85)
- herbicidal activity (Avena fatua; 1000 g/ha): very good (a very good herbicidal activity is given at values of at least 85)
- herbicidal activity (Echinocloa crus-galli [1]; 1000 g/ha): very good (a very good herbicidal activity is given at values of at least 85)
- herbicidal activity (Apera spica-venti; 1000 g/ha): very good (a very good herbicidal activity is given at values of at least 85)
- herbicidal activity (Echinocloa crus-galli [2]; 1000 g/ha): very good (a very good herbicidal activity is given at values of at least 85)
